Results on eleven compounds are retold here after PubChem BioAssay AID270 (DTP/NCI, 2004).

Each structure is given as a SMILES string. Where “and” joins values, the source holds several entries; their conditions need not be identical. Equal values may be shown once. Inconclusive results are not listed.

The test system of the assay is BDF1 mice, s.c. Lewis lung carcinoma, T/C %. The experiment in a line: NCI In Vivo Anticancer Drug Screen. Data for tumor model Lewis Lung Carcinoma (subcutaneous) in B6D2F1 (BDF1) mice. As for the experimental part: The antitumor activity of compounds was measured in mice bearing transplantable tumors. Survival or tumor size were measured and the results are expressed as the measurement made in the treated group (T) divided by the measurement made in the vehicle treated control group (C). The tumor model used in this assay is Lewis Lung Carcinoma (subcutaneous) in B6D2F1 (BDF1) mice

`Nc1ncn(C2OC(CO)C(O)C2O)c(=O)n1` (stereo not drawn): the T/C by setting is: (endpoint: median survival time, dose: 0.75 mg/kg/injection, schedule: Q01DX009 (ip), vehicle: saline, higher = longer survival) 105 % of control and 112 % of control and 121 % of control; (endpoint: median survival time, dose: 1.5 mg/kg/injection, schedule: Q01DX009 (ip), vehicle: saline, higher = longer survival) 121 % of control and 124 % of control; (endpoint: median survival time, dose: 3.0 mg/kg/injection, schedule: Q01DX009 (ip), vehicle: saline, higher = longer survival) 105 % of control and 110 % of control; (endpoint: median tumor weight (est.), dose: 0.75 mg/kg/injection, schedule: Q01DX009 (ip), vehicle: saline, higher = larger tumour) 75 % of control; (endpoint: median tumor weight (est.), dose: 1.5 mg/kg/injection, schedule: Q01DX009 (ip), vehicle: saline, higher = larger tumour) 73 % of control; (endpoint: median tumor weight (est.), dose: 3.0 mg/kg/injection, schedule: Q01DX009 (ip), vehicle: saline, higher = larger tumour) 59 % of control.
Take `NC(=S)N/N=C/c1ccc(O)cn1`: the T/C reads like this: (endpoint: median survival time, dose: 18.8 mg/kg/injection, schedule: Q01DX009 (ip), vehicle: saline with Tween-80, higher = longer survival) 94 % of control; (endpoint: median survival time, dose: 37.5 mg/kg/injection, schedule: Q01DX009 (ip), vehicle: saline with Tween-80, higher = longer survival) 106 % of control and 119 % of control; (endpoint: median survival time, dose: 75.0 mg/kg/injection, schedule: Q01DX009 (ip), vehicle: saline with Tween-80, higher = longer survival) 97 % of control; (endpoint: median survival time, dose: 150.0 mg/kg/injection, schedule: Q01DX009 (ip), vehicle: saline with Tween-80, higher = longer survival) 121 % of control.
In the case of `O=NN(CCCl)C(=O)NC1CCCC1`, the T/C is, setting by setting: (endpoint: median tumor weight (est.), dose: 33.0 mg/kg/injection, schedule: Q01DX001 (ip), vehicle: saline, higher = larger tumour) 62 % of control; (endpoint: median tumor weight (est.), dose: 67.0 mg/kg/injection, schedule: Q01DX001 (ip), vehicle: saline, higher = larger tumour) 76 % of control; (endpoint: median tumor weight (est.), dose: 100.0 mg/kg/injection, schedule: Q01DX001 (ip), vehicle: saline, higher = larger tumour) 56 % of control.
As for `NC(=O)c1ncn(C2OC(CO)C(O)C2O)n1` (stereo not drawn), the T/C reads like this: (endpoint: median survival time, dose: 20.0 mg/kg/injection, schedule: Q01DX009 (ip), vehicle: saline, higher = longer survival) 100 % of control; (endpoint: median survival time, dose: 40.0 mg/kg/injection, schedule: Q01DX009 (ip), vehicle: saline, higher = longer survival) 93 % of control and 107 % of control; (endpoint: median survival time, dose: 80.0 mg/kg/injection, schedule: Q01DX009 (ip), vehicle: saline, higher = longer survival) 97 % of control and 107 % of control; (endpoint: median survival time, dose: 160.0 mg/kg/injection, schedule: Q01DX009 (ip), vehicle: saline, higher = longer survival) 118 % of control.
Turning to `NC1=NC(=S)C2N=C(N=Nc3ccc(C(=O)NC(CCC(=O)O)C(=O)O)cc3)N=C2N1` (stereo not drawn), the T/C is 97 % of control (endpoint: median survival time, dose: 0.2 mg/kg/injection, schedule: Q01DX009 (ip), vehicle: Klucel (hydroxypropylcellulose) (HPC), higher = longer survival); 93 % of control (endpoint: median survival time, dose: 0.4 mg/kg/injection, schedule: Q01DX009 (ip), vehicle: Klucel (hydroxypropylcellulose) (HPC), higher = longer survival); 110 % of control (endpoint: median survival time, dose: 0.78 mg/kg/injection, schedule: Q01DX009 (ip), vehicle: Klucel (hydroxypropylcellulose) (HPC), higher = longer survival).
Consider `Clc1ncnc2c1ncn2C1CCCO1` (stereo not drawn), for which the T/C by setting is: (endpoint: mean tumor weight, dose: 25.0 mg/kg/injection, schedule: Q01DX011 (ip), vehicle: other, higher = larger tumour) 91 % of control; (endpoint: mean tumor weight, dose: 50.0 mg/kg/injection, schedule: Q01DX011 (ip), vehicle: other, higher = larger tumour) 108 % of control; (endpoint: mean tumor weight, dose: 100.0 mg/kg/injection, schedule: Q01DX011 (ip), vehicle: other, higher = larger tumour) 81 % of control; (endpoint: mean tumor weight, dose: 200.0 mg/kg/injection, schedule: Q01DX011 (ip), vehicle: other, higher = larger tumour) 51 % of control and 62 % of control; (endpoint: mean tumor weight, dose: 400.0 mg/kg/injection, schedule: Q01DX011 (ip), vehicle: other, higher = larger tumour) 57 % of control; (endpoint: mean tumor weight, dose: 600.0 mg/kg/injection, schedule: Q01DX011 (ip), vehicle: other, higher = larger tumour) 42 % of control.
With `c1ccc([B-]2([C+]3CCCCC3)N3CCCCC3C3CCCCN32)cc1` (stereo not drawn), the T/C is 89 % of control (endpoint: median survival time, dose: 12.5 mg/kg/injection, schedule: Q01DX009 (ip), vehicle: Klucel (hydroxypropylcellulose) (HPC), higher = longer survival) and 106 % of control (endpoint: median survival time, dose: 25.0 mg/kg/injection, schedule: Q01DX009 (ip), vehicle: Klucel (hydroxypropylcellulose) (HPC), higher = longer survival).
Regarding `C=C1c2[nH]c3ccccc3c2CN2CCC1/C(=C/C)C2` (stereo not drawn), the T/C (endpoint: mean tumor weight, dose: 0.5 mg/kg/injection, schedule: Q01DX011 (ip), vehicle: saline, higher = larger tumour) was 104 % of control; the T/C (endpoint: mean tumor weight, dose: 1.0 mg/kg/injection, schedule: Q01DX011 (ip), vehicle: saline, higher = larger tumour) was 74 % of control; the T/C (endpoint: mean tumor weight, dose: 2.0 mg/kg/injection, schedule: Q01DX011 (ip), vehicle: saline, higher = larger tumour) was 102 % of control.
Regarding `NC(Cc1cc([N+](=O)[O-])ccc1CN(CCCl)CCCl)C(=O)O` (stereo not drawn), the T/C is, setting by setting: (endpoint: median survival time, dose: 1.0 mg/kg/injection, schedule: Q01DX009 (ip), vehicle: Klucel (hydroxypropylcellulose) (HPC), higher = longer survival) 110 % of control; (endpoint: median survival time, dose: 2.0 mg/kg/injection, schedule: Q01DX009 (ip), vehicle: Klucel (hydroxypropylcellulose) (HPC), higher = longer survival) 116 % of control; (endpoint: median survival time, dose: 3.12 mg/kg/injection, schedule: Q01DX001 (ip), vehicle: Klucel (hydroxypropylcellulose) (HPC), higher = longer survival) 107 % of control; (endpoint: median survival time, dose: 6.25 mg/kg/injection, schedule: Q01DX001 (ip), vehicle: Klucel (hydroxypropylcellulose) (HPC), higher = longer survival) 104 % of control; (endpoint: median survival time, dose: 12.5 mg/kg/injection, schedule: Q01DX001 (ip), vehicle: Klucel (hydroxypropylcellulose) (HPC), higher = longer survival) 103 % of control.
As to `O=C(O)CCC(=O)O`, the T/C runs as follows: (endpoint: median survival time, dose: 0.62 mg/kg/injection, schedule: Q01DX009 (ip), vehicle: water, higher = longer survival) 110 % of control; (endpoint: median survival time, dose: 1.25 mg/kg/injection, schedule: Q01DX009 (ip), vehicle: water, higher = longer survival) 103 % of control; (endpoint: median survival time, dose: 2.5 mg/kg/injection, schedule: Q01DX009 (ip), vehicle: water, higher = longer survival) 93 % of control; (endpoint: median survival time, dose: 5.0 mg/kg/injection, schedule: Q01DX009 (ip), vehicle: water, higher = longer survival) 93 % of control and 108 % of control; (endpoint: median survival time, dose: 10.0 mg/kg/injection, schedule: Q01DX009 (ip), vehicle: water, higher = longer survival) 102 % of control and 107 % of control; (endpoint: median survival time, dose: 20.0 mg/kg/injection, schedule: Q01DX009 (ip), vehicle: water, higher = longer survival) 106 % of control and 115 % of control and 97 % of control. The T/C is 96 % of control and 103 % of control and 108 % of control (endpoint: median survival time, dose: 40.0 mg/kg/injection, schedule: Q01DX009 (ip), vehicle: water, higher = longer survival); 104 % of control (endpoint: median survival time, dose: 80.0 mg/kg/injection, schedule: Q01DX009 (ip), vehicle: water, higher = longer survival).
Turning to `CCOC(=O)C1CCC(NC(=O)N(CCCl)N=O)CC1` (stereo not drawn), the T/C was 155 % of control (endpoint: median survival time, dose: 8.6 mg/kg/injection, schedule: Q04DX004 (ip), vehicle: gum acacia, higher = longer survival); 155 % of control and 168 % of control and 204 % of control (endpoint: median survival time, dose: 13.0 mg/kg/injection, schedule: Q04DX004 (ip), vehicle: gum acacia, higher = longer survival); 413 % of control (endpoint: median survival time, dose: 15.0 mg/kg/injection, schedule: Q07DX002 (ip), vehicle: gum acacia, higher = longer survival); 176 % of control and 252 % of control (endpoint: median survival time, dose: 18.0 mg/kg/injection, schedule: Q04DX004 (ip), vehicle: gum acacia, higher = longer survival); 181 % of control (endpoint: median survival time, dose: 20.0 mg/kg/injection, schedule: Q04DX004 (ip), vehicle: gum acacia, higher = longer survival); 413 % of control (endpoint: median survival time, dose: 21.0 mg/kg/injection, schedule: Q07DX002 (ip), vehicle: gum acacia, higher = longer survival). Further, the T/C was 191 % of control (endpoint: median survival time, dose: 22.0 mg/kg/injection, schedule: Q07DX002 (ip), vehicle: gum acacia, higher = longer survival); 232 % of control and 245 % of control (endpoint: median survival time, dose: 24.0 mg/kg/injection, schedule: Q07DX002 (ip), vehicle: gum acacia, higher = longer survival); 184 % of control (endpoint: median survival time, dose: 28.0 mg/kg/injection, schedule: Q07DX002 (ip), vehicle: gum acacia, higher = longer survival); 157 % of control and 166 % of control and 187 % of control (endpoint: median survival time, dose: 30.0 mg/kg/injection, schedule: Q01DX001 (ip), vehicle: gum acacia, higher = longer survival); 70 % of control (endpoint: median survival time, dose: 30.0 mg/kg/injection, schedule: Q04DX004 (ip), vehicle: gum acacia, higher = longer survival); 88 % of control and 90 % of control (endpoint: median survival time, dose: 33.0 mg/kg/injection, schedule: Q07DX002 (ip), vehicle: gum acacia, higher = longer survival). Besides, the T/C runs as follows: (endpoint: median tumor weight (est.), dose: 15.0 mg/kg/injection, schedule: Q01DX001 (ip), vehicle: gum acacia, higher = larger tumour) 16 % of control; (endpoint: median tumor weight (est.), dose: 29.0 mg/kg/injection, schedule: Q01DX001 (ip), vehicle: gum acacia, higher = larger tumour) 8 % of control.
